According to article PMC11071649, “Synthesis and Selective Anticancer Activity Evaluation of 2-phenylacrylonitrile Derivatives as Tubulin Inhibitors” (Current Medicinal Chemistry, 2024):
Like-named read-outs stand apart in the source and are kept apart here.

Legend:
[1] = tested on: MGC-803 cancer cells; set-up: method as in PMID 29516624, PMID 30244610; conditions: Fig. 1; cited from earlier work
[2] = tested on: L-02 normal cells; set-up: method as in PMID 27887843, PMID 29516624, PMID 30244610; conditions: Fig. 1; cited from earlier work
[3] = tested on: A549 lung cancer cell; assay: MTT anti-proliferative assay, A549; format: cell-based, human; conditions: MTT, 48 h
Summary of the method: (§1)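 MTT read-out of net cell-growth inhibition after compound exposure of cells seeded in 96-well plates. Lines were ATCC-sourced and grown in DMEM plus FBS.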

[4] = tested on: AGS gastric cancer cell; assay: MTT anti-proliferative assay, AGS; format: cell-based, human; conditions: for IC50: MTT, 48 h
Summary of the method: as §1

[5] = tested on: BEL-7402 liver cancer cell; assay: MTT anti-proliferative assay, BEL-7402; format: cell-based, human; conditions: for IC50: MTT, 48 h
Summary of the method: as §1

[6] = tested on: HCT116 colectal cancer cell; assay: MTT anti-proliferative assay, HCT116; format: cell-based, human; conditions: for IC50: MTT, 48 h
Summary of the method: as §1

[7] = tested on: HeLa cervical cancer cell; assay: MTT anti-proliferative assay, HeLa; format: cell-based, human; conditions: MTT, 48 h
Summary of the method: as §1

[8] = tested on: HepG2 hepatoma cell; assay: MTT anti-proliferative assay, HepG2; format: cell-based, human; conditions: MTT, 48 h, read-out: IC50 HepG-2
Summary of the method: as §1

[9] = tested on: L-02 normal liver cell; assay: MTT assay, L-02 normal cells; format: cell-based, human; conditions: 48 h
Summary of the method: as §1

[10] = tested on: MGC-803 late stage differentiation gastric cancer cell; assay: MTT anti-proliferative assay, MGC-803; format: cell-based, human; conditions: for IC50: MTT, 48 h
Summary of the method: as §1

[11] = tested on: MCF-7 breast cancer cell; assay: MTT anti-proliferative assay, MCF-7; format: cell-based, human; conditions: MTT, 48 h
Summary of the method: as §1

[12] = tested on: MCF-10A normal breast cell; assay: MTT assay, MCF-10A normal cells; format: cell-based, human; conditions: 48 h
Summary of the method: as §1

[13] = tested on: Raji B lymphoblastoid cell; assay: MTT anti-proliferative assay, Raji; format: cell-based, human
Summary of the method: as §1

[14] = tested on: SGC-7901 early differentiation gastric cancer cell; assay: MTT anti-proliferative assay, SGC-7901; format: cell-based, human; conditions: for IC50: MTT, 48 h
Summary of the method: as §1

[15] = tested on: diffuse large B-cell lymphoma SU-DHL-10 cell; assay: MTT anti-proliferative assay, SU-DHL-10; format: cell-based, human
Summary of the method: as §1

[16] = MTT, 48 h, read-out: IC50 SU-DHL-10
[17] = Homo sapiens, Raji, MTT, 48 h, read-out: IC50 Raji
[18] = Homo sapiens, SU-DHL10, MTT, 48 h, read-out: IC50 SU-DHL-10

SMILES | IC50 ([3]; Homo sapiens, A549) | IC50 ([4]; Homo sapiens) | IC50 ([5]; Homo sapiens, Bel-7402) | IC50 ([6]; Homo sapiens, HCT-116) | IC50 ([7]; Homo sapiens, HeLa) | IC50 ([8]; Homo sapiens, HepG2) | IC50 ([10]; Homo sapiens, MGC-803) | IC50 ([11]; Homo sapiens, MCF7) | IC50 [13, 17] | IC50 ([14]; Homo sapiens, SGC-7901) | IC50 [15, 18] | melting point | SI (selectivity index), IC50 (L-02)/IC50 (HCT-116) [6] | SI (selectivity index), IC50 (L-02)/IC50 (Raji) [13] | SI (selectivity index), IC50 (L-02)/IC50 (SU-DHL-10) [15] | IC50 ([9]; Homo sapiens) | IC50 ([12]; Homo sapiens, MCF-10A) | also measured
COc1cc(/C(C#N)=C/c2ccc(C)cc2)cc(OC)c1OC [Compound 1, (Z)-3-(p-tolyl)-2-(3,4,5-trimethoxyphenyl)acrylonitrile] |  |  |  |  |  |  |  |  |  |  |  |  |  |  |  |  |  | IC50 [1]: < 10 nM; IC50 [2]: > 100 µM
CCN(CC)c1ccc(/C=C(\C#N)c2cc(OC)c(OC)c(OC)c2)cc1 [Compound 1g2b] |  |  |  |  |  |  |  |  |  |  |  |  | > 96.1 | > 270 | > 34.0 |  |  | IC50 [3]: > 100 µM; SI (selectivity index), IC50 (L-02)/IC50 (AGS) [4]: > 13.1; IC50 [4]: 7.5 ± 0.4 µM; SI (selectivity index), IC50 (L-02)/IC50 (BEL-7402) [5]: > 3333; IC50 [5]: 0.03 ± 0.01 µM; IC50 ([6]; read-out: IC50 HCT-116): 1 ± 0.1 µM; IC50 [7]: > 100 µM; IC50 [8]: > 100 µM; IC50 [9]: > 100 µM; SI (selectivity index), IC50 (L-02)/IC50 (MGC-803) [10]: > 819; IC50 [10]: 0.12 ± 0.03 µM; IC50 [11]: 0.45 ± 0.06 µM; IC50 [12]: 0.05 ± 0.001 µM; IC50 ([13]; MTT, 48 h, read-out: IC50 Raji): 370 ± 60 nM; IC50 [14]: > 100 µM; IC50 [15, 16]: 2400 ± 100 nM
N#C/C(=C\c1cn(-c2ccccc2)nn1)c1ccc(OC(F)(F)F)cc1 [Compound 7a] | > 100 µM | > 100 µM | > 100 µM | > 100 µM | > 100 µM | > 100 µM | > 100 µM | > 100 µM | > 100000 nM | > 100 µM | > 100000 nM |  |  |  |  | > 100 µM | > 100 µM | 
COc1cccc(-n2cc(/C=C(\C#N)c3ccc(OC(F)(F)F)cc3)nn2)c1 [Compound 7b] | > 100 µM | > 100 µM | > 100 µM | > 100 µM | > 100 µM | > 100 µM | > 100 µM | > 100 µM | > 100000 nM | > 100 µM | > 100000 nM |  |  |  |  | > 100 µM | > 100 µM | 
COc1cc(-n2cc(/C=C(\C#N)c3ccc(OC(F)(F)F)cc3)nn2)cc(OC)c1OC [Compound 7c] | > 100 µM | > 100 µM | > 100 µM | > 100 µM | > 100 µM | > 100 µM | > 100 µM | > 100 µM | > 100000 nM | > 100 µM | > 100000 nM | 170 to 172 °C |  |  |  | > 100 µM | > 100 µM | 
COc1ccc(C(=O)/C=C/c2ccc(/C=C(\C#N)c3ccc(OC(F)(F)F)cc3)cc2)cc1 [Compound 8a] | > 100 µM | > 100 µM | 13.2 ± 2.7 µM | 56.3 ± 8.4 µM | > 100 µM | > 100 µM | > 100 µM | 17.6 ± 6.5 µM | 1200 ± 500 nM | > 100 µM | 1300 ± 100 nM | 148 to 150 °C |  |  |  | > 100 µM | 11.3 ± 2.3 µM | IC50 ([13]; Homo sapiens, Raji, read-out: IC50 Raji cells): ~1000 nM; IC50 ([15]; Homo sapiens, SU-DHL10, read-out: IC50 SU-DHL-10 cells): ~1000 nM
N#C/C(=C\c1ccc(/C=C/C(=O)c2ccccc2)cc1)c1ccc(OC(F)(F)F)cc1 [Compound 8b] | > 100 µM | > 100 µM | > 100 µM | > 100 µM | > 100 µM | > 100 µM | > 100 µM | > 100 µM | > 100000 nM | > 100 µM | > 100000 nM | 155 to 157 °C |  |  |  | > 100 µM | > 100 µM | 
N#C/C(=C\c1ccc(/C=C/C(=O)c2ccc(F)cc2)cc1)c1ccc(OC(F)(F)F)cc1 [Compound 8c] |  |  |  |  |  |  |  |  |  |  |  |  | > 4.3 | > 99.0 | > 96.1 |  |  | IC50 [3]: > 100 µM; SI (selectivity index), IC50 (L-02)/IC50 (AGS) [4]: > 3.9; IC50 [4]: 25.3 ± 7.5 µM; SI (selectivity index), IC50 (L-02)/IC50 (BEL-7402) [5]: > 1.2; IC50 [5]: 77.4 ± 3 µM; IC50 ([6]; read-out: IC50 HCT-116): 22.9 ± 6.2 µM; IC50 [7]: > 100 µM; IC50 [8]: > 100 µM; IC50 [9]: > 100 µM; SI (selectivity index), IC50 (L-02)/IC50 (MGC-803) [10]: > 1.1; IC50 [10]: 87.5 ± 0.6 µM; IC50 [11]: 67.7 ± 5.4 µM; IC50 [12]: 15.8 ± 2.5 µM; IC50 ([13]; MTT, 48 h, read-out: IC50 Raji): 1000 ± 200 nM; IC50 ([13]; read-out: IC50 Raji cells): ~1000 nM; SI (selectivity index), IC50 (L-02)/IC50 (SGC-7901) [14]: > 4.5; IC50 [14]: 22.2 ± 8.6 µM; IC50 [15, 16]: 1000 ± 200 nM; IC50 ([15]; read-out: IC50 SU-DHL-10 cells): ~1000 nM

Continued, in another order:

IC50 ([3]; Homo sapiens, A549) | IC50 ([4]; Homo sapiens) | IC50 ([5]; Homo sapiens, Bel-7402) | IC50 ([6]; Homo sapiens, HCT-116) | IC50 ([7]; Homo sapiens, HeLa) | IC50 ([8]; Homo sapiens, HepG2) | IC50 ([10]; Homo sapiens, MGC-803) | IC50 ([11]; Homo sapiens, MCF7) | IC50 [13, 17] | IC50 ([14]; Homo sapiens, SGC-7901) | IC50 [15, 18] | melting point | SMILES | SI (selectivity index), IC50 (L-02)/IC50 (HCT-116) [6] | SI (selectivity index), IC50 (L-02)/IC50 (Raji) [13] | SI (selectivity index), IC50 (L-02)/IC50 (SU-DHL-10) [15] | IC50 ([9]; Homo sapiens) | IC50 ([12]; Homo sapiens, MCF-10A) | also measured
> 100 µM | 31.8 ± 6.1 µM | > 100 µM | 35.3 ± 6.5 µM | > 100 µM | > 100 µM | > 100 µM | 53.1 ± 7.1 µM | 3000 ± 1000 nM | > 100 µM | 7100 ± 2600 nM | 145 to 147 °C | N#C/C(=C\c1ccc(/C=C/C(=O)c2ccc(Br)cc2)cc1)c1ccc(OC(F)(F)F)cc1 [Compound 8d] | > 1.7 | > 79.3 | > 14.0 | > 100 µM | 37.3 ± 4.3 µM | 
> 100 µM | > 100 µM | > 100 µM | > 100 µM | > 100 µM | > 100 µM | > 100 µM | > 100 µM | > 100000 nM | > 100 µM | > 100000 nM | 118 to 120 °C | N#C/C(=C\c1cn(Cc2ccccc2)c2ccccc12)c1ccc(OC(F)(F)F)cc1 [Compound 9, (Z)-3-(1-benzyl-1H-indol-3-yl)-2-(4-(trifluoromethoxy)phenyl)acrylonitrile] |  |  |  | > 100 µM | > 100 µM | 
